From paper PMC7917164 (Bioorganic & medicinal chemistry, 2020)
Structures can show the parent of a compound that is named as a salt.

Test system: Aβ42 levels (γ-secretase modulation) in SHSY5Y-APP cells
Test: Cell-based ELISA assay for measuring extracellular Aβ42 levels
Design: species or system human
Conditions: not given

SMILES	Parent Aβ42 IC50
CCn1nc2c(c1Nc1nc(-c3ccc(-n4cnc(C)c4)c(OC)n3)cs1)CCC2(C)C [Compound 71, N-(2-ethyl-6,6-dimethyl-2,4,5,6-tetrahydrocyclopenta[c]pyrazol-3-yl)-4-(6-methoxy-5-(4-methyl-1H-imidazol-1-yl)pyridin-2-yl)thiazol-2-amine]	62 nM
COc1nc(-c2csc(Nc3c4c(nn3C3CCOC3)CCCC4)n2)ccc1-n1cnc(C)c1 (racemic) [Compound 40, (+/−)-4-(6-methoxy-5-(4-methyl-1H-imidazol-1-yl)pyridin-2-yl)-N-(2-(tetrahydrofuran-3-yl)-4,5,6,7-tetrahydro-2H-indazol-3-yl)thiazol-2-amine]	289 nM
CCn1nc2c(c1Nc1nc(-c3ccc(-n4cnc(C)c4)c(OC)n3)cs1)CCCCC2 [Compound 73, N-(2-ethyl-2,4,5,6,7,8-hexahydrocyclohepta[c]pyrazol-3-yl)-4-(6-methoxy-5-(4-methyl-1H-imidazol-1-yl)pyridin-2-yl)thiazol-2-amine]	114 nM
COCCn1nc2c(c1Nc1nc(-c3ccc(-n4cnc(C)c4)c(OC)n3)cs1)CCCC2 [Compound 48, 4-(6-methoxy-5-(4-methyl-1H-imidazol-1-yl)pyridin-2-yl)-N-(2-(2-methoxyethyl)-4,5,6,7-tetrahydro-2H-indazol-3-yl)thiazol-2-amine]	272 nM
COc1nc(-c2csc(Nc3c4c(nn3CCO)CCC4)n2)ccc1-n1cnc(C)c1 [Compound 70, 2-(3-((4-(6-methoxy-5-(4-methyl-1H-imidazol-1-yl)pyridin-2-yl)thiazol-2-yl)amino)-5,6-dihydrocyclopenta[c]pyrazol-2(4H)-yl)ethanol]	>1000 nM
COc1nc(-c2csc(Nc3c4c(nn3C3CCC3)CCCC4)n2)ccc1-n1cnc(C)c1 [Compound 37, N-(2-cyclobutyl-4,5,6,7-tetrahydro-2H-indazol-3-yl)-4-(6-methoxy-5-(4-methyl-1H-imidazol-1-yl)pyridin-2-yl)thiazol-2-amine]	99 nM
COc1nc(-c2csc(Nc3c4c(nn3C3CCCCC3)CCCC4)n2)ccc1-n1cnc(C)c1 [Compound 39, N-(2-cyclohexyl-4,5,6,7-tetrahydro-2H-indazol-3-yl)-4-(6-methoxy-5-(4-methyl-1H-imidazol-1-yl)pyridin-2-yl)thiazol-2-amine]	280 nM
COc1nc(-c2csc(Nc3c4c(nn3C3CCOCC3)CCCC4)n2)ccc1-n1cnc(C)c1 [Compound 41, 4-(6-methoxy-5-(4-methyl-1H-imidazol-1-yl)pyridin-2-yl)-N-(2-(tetrahydro-2H-pyran-4-yl)-4,5,6,7-tetrahydro-2H-indazol-3-yl)thiazol-2-amine]	766 nM
COc1nc(-c2csc(Nc3cc(C(C)(C)C)nn3C(C)C)n2)ccc1-n1cnc(C)c1 [Compound 54, N-(3-(tert-butyl)-1-isopropyl-1H-pyrazol-5-yl)-4-(6-methoxy-5-(4-methyl-1H-imidazol-1-yl)pyridine-2-yl)thiazol-2-amine]	87 nM
COc1nc(-c2csc(Nc3c4c(nn3CC(C)(C)O)CCCC4)n2)ccc1-n1cnc(C)c1 [Compound 51, 1-(3-((4-(6-methoxy-5-(4-methyl-1H-imidazol-1-yl)pyridin-2-yl)thiazol-2-yl)amino)-4,5,6,7-tetrahydro-2H-indazol-2-yl)-2-methylpropan-2-ol]	55 nM
CCn1nccc1Nc1nc(-c2ccc(-n3cnc(C)c3)c(OC)n2)cs1 [Compound 74, N-(1-ethyl-1H-pyrazol-5-yl)-4-(6-methoxy-5-(4-methyl-1H-imidazol-1-yl)pyridin-2-yl)thiazol-2-amine]	>1000 nM
COc1nc(-c2csc(Nc3c4c(nn3CCN3CCCCC3)CCCC4)n2)ccc1-n1cnc(C)c1 [Compound 43, 4-(6-methoxy-5-(4-methyl-1H-imidazol-1-yl)pyridin-2-yl)-N-(2-(2-(piperidin-1-yl)ethyl)-4,5,6,7-tetrahydro-2H-indazol-3-yl)thiazol-2-amine]	475 nM
COc1nc(-c2csc(Nc3cc(C(F)(F)F)nn3C(C)(C)C)n2)ccc1-n1cnc(C)c1 [Compound 61, N-(1-(tert-butyl)-3-(trifluoromethyl)-1H-pyrazol-5-yl)-4-(6-methoxy-5-(4-methyl-1H-imidazol-1-yl)pyridin-2-yl)thiazol-2-amine]	121 nM
COc1nc(-c2csc(Nc3c4c(nn3CCCN3CCOCC3)CCCC4)n2)ccc1-n1cnc(C)c1 [Compound 45, 4-(6-methoxy-5-(4-methyl-1H-imidazol-1-yl)pyridin-2-yl)-N-(2-(3-morpholinopropyl)-4,5,6,7-tetrahydro-2H-indazol-3-yl)thiazol-2-amine]	270 nM
COc1nc(-c2csc(Nc3cc(C(C)(C)C)nn3C(C)(C)C)n2)ccc1-n1cnc(C)c1 [Compound 55, N-(1,3-di-tert-butyl-1H-pyrazol-5-yl)-4-(6-methoxy-5-(4-methyl-1H-imidazol-1-yl)pyridin-2-yl)thiazol-2-amine]	85 nM
COc1nc(-c2csc(Nc3c4c(nn3CCN3CCOCC3)CCCC4)n2)ccc1-n1cnc(C)c1 [Compound 44, 4-(6-methoxy-5-(4-methyl-1H-imidazol-1-yl)pyridin-2-yl)-N-(2-(2-morpholinoethyl)-4,5,6,7-tetrahydro-2H-indazol-3-yl)thiazol-2-amine trihydrochloride]	>1000 nM
CCn1nc2c(c1N(C)c1nc(-c3ccc(-n4cnc(C)c4)c(OC)n3)cs1)CCCC2 [Compound 52, N-(2-ethyl-4,5,6,7-tetrahydro-2H-indazol-3-yl)-4-(6-methoxy-5-(4-methyl-1H-imidazol-1-yl)pyridin-2-yl)-N-methylthiazol-2-amine]	>1000 nM
COc1nc(-c2csc(Nc3c4c(nn3CC(F)(F)F)CCC4)n2)ccc1-n1cnc(C)c1 [Compound 69, 4-(6-methoxy-5-(4-methyl-1H-imidazol-1-yl)pyridin-2-yl)-N-(2-(2,2,2-trifluoroethyl)-2,4,5,6-tetrahydrocyclopenta[c]pyrazol-3-yl)thiazol-2-amine]	94 nM
COc1nc(-c2csc(Nc3c4c(nn3C(C)(C)C)CCC4)n2)ccc1-n1cnc(C)c1 [Compound 66, N-(2-(tert-butyl)-2,4,5,6-tetrahydrocyclopenta[c]pyrazol-3-yl)-4-(6-methoxy-5-(4-methyl-1H-imidazol-1-yl)pyridin-2-yl)thiazol-2-amine]	175 nM
COc1nc(-c2csc(Nc3c4c(nn3C(C)C)CCC4)n2)ccc1-n1cnc(C)c1 [Compound 65, N-(2-isopropyl-2,4,5,6-tetrahydrocyclopenta[c]pyrazol-3-yl)-4-(6-methoxy-5-(4-methyl-1H-imidazol-1-yl)pyridin-2-yl)thiazol-2-amine]	66 nM
COc1nc(-c2csc(Nc3c4c(nn3C3CCN(C)CC3)CCCC4)n2)ccc1-n1cnc(C)c1 [Compound 42, 4-(6-methoxy-5-(4-methyl-1H-imidazol-1-yl)pyridin-2-yl)-N-(2-(1-methylpiperidin-4-yl)-4,5,6,7-tetrahydro-2H-indazol-3-yl)thiazol-2-amine]	>1000 nM

Same assay, conditions: ratio of Aβ42 IC50 values

SMILES	Loss in activity (Aβ42) versus the parent fluorophenyl compound
CCn1nc2c(c1Nc1nc(-c3ccc(-n4cnc(C)c4)cc3)cs1)CCCC2 [Compound 22a]	greater than 4 fold
